Test results as given in patent US8168233B2 (Amylin Pharmaceuticals, Inc., priority 2002, dated 2012).
pEC50: −log10 of the molar value. Blank lines part the entries; values can stand above or below the molecule they belong to. Where no end group is shown, it is not given here.

Experiments:
rat pancreas = assay: Inhibition of CCK-8 stimulated lipase and amylase secretion in rat pancreas (pancreatic juice collection in anesthetized rats); format: in vivo; conditions: for Amylase, % from CCK-8 stimulated / Lipase, % from CCK-8 stimulated / Pancreatic flow, % from CCK-8 stimulated: decrease versus CCK-8 alone
Protocol: Tracheotomy and cannulation of the right femoral artery were performed and body temperature was controlled with a thermoregulator (Model 73A, YSI, Yellow Springs, Ohio, USA) that switched a heated operating table. The femoral arterial line, used for blood sampling, was perfused with heparinized saline (2 u/ml) and connected to a pressure transducer for blood pressure recording (Spectramed P23XL transducer, Model 13-4615-58 amplifier, Gould, Cleveland, Ohio, USA). Through a midline incision two polyethylene cannulae were inserted into the common bile-pancreatic duct at a point about 0.5 cm above where the duct enters the pancreas. The first cannula was inserted up toward the liver to collect bile. The other end of this cannula was placed into the duodenum through a small incision in the duodenum. Thus, bile flowed directly from the liver to the small intestine, being shunted away from the pancreas completely.
A second polyethylene cannula was inserted into the common bile-pancreatic duct near the first but in the opposite direction to collect pancreatic juice. The other end of the pancreatic duct was tied off with a suture just at the point where it enters the duodenum, forcing any pancreatic juice produced to flow through the second cannula for collection. Pancreatic juice was collected every 15 min from −30 to 90 min. […] The volume of juice was measured and aliquots taken for enzymes determination. Amylase and lipase, which are secreted in pancreatic juice in an active form, were tested using diagnostic kits (Lipase-PS assay kit, Sigma Diagnostics Catalog #805-A and Amylase 3 assay kit, Sigma Diagnostics Catalog #577-3, Sigma Diagnostics, St. Louis, Mo., USA). To perform both assays, pancreatic juice was diluted with saline in proportion 1:2000. Activity of enzymes was expressed in units per 15 min (activity in pancreatic juice collected every 15 min).

[1] = Amylin activity in vivo in treated test animals (hyperlactemia followed by hyperglycemia); conditions: e.g., provoking marked hyperlactemia followed by hyperglycemia
soleus muscle = conditions: read-out: EC50 in the soleus muscle assay; typical range of amylin preparations; […] insulin
Protocol: The tendons of the muscles are ligated before attachment to stainless steel clips. […] Flasks are sealed and gassed continuously with O2 and CO2 in the ratio 19:1 (v/v). After pre-incubation of muscles in this medium for 30 min at 37° C. in an oscillating water bath, the muscles strips are transferred to similar vials containing identical medium (except pyruvate) with added [U-^14C] glucose (0.5 μCi/ml) and insulin (100 μU/ml). […] At the end of the incubation period, muscles are blotted and rapidly frozen in liquid N2. The concentration of lactate in the incubation medium can be determined spectrophotometrically and [U-^14C]glucose incorporation in glycogen measured.
Male Harlan Sprague-Dawley rats of approximately 200 g mass were used in order to maintain mass of the split soleus muscle less than 40 mg. The animals were fasted for 4 hours prior to sacrifice by decapitation. The skin was stripped from the lower limb which was then pinned out on corkboard. The tendo achilles was cut just above os calcis and m. gastrocnemius reflected out from the posterior aspect of the tibia. […]
^14C-glycogen determination was performed in a 7 mL scintillation vial. […] The remaining glycogen was redissolved in 1 mL water and 4 mL scintillation fluid and counted for ^14C. […]

[2] = system: caerulein-induced pancreatitis in ICR(CD-1) male mice; assay: Effect of amylin on caerulein-induced pancreatitis (plasma amylase); format: in vivo; conditions: amylin at levels as low as 0.01 μg injected at t=−5 min; plasma at 9 hours after first caerulein injection
Protocol: Male ICR mice, weighing approximately 20 g, were fasted overnight and throughout the experiment, but were allowed access to water ad libitum. […] At t=0, 0.01 μg/kg of caerulein in all but the normal group of mice. The dosing regimen for caerulein was repeated 3 times at 2 hour intervals. At t=9 hours, i.e., 9 hours after the first caerulein injection, the mice were bleed (orbital sinus) and the plasma assayed for amylase (Amylase 3 assay kit, Sigma Diagnostics Catalog #577-3, Sigma Diagnostics, St. Louis, Mo., USA).

[3] = system: pancreatic enzyme secretion; conditions: rat model, doses resulting in physiological plasma concentrations; cited from earlier work
[4] = human, in vivo; cited from earlier work
[5] = Amylin 1 μg s.c. alone, no CCK-8
[6] = Amylin 10 μg s.c. alone, no CCK-8
[7] = CCK-8 1 μg and Amylin 0.1 μg s.c.
[8] = CCK-8 1 μg and Amylin 0.3 μg s.c.
[9] = CCK-8 1 μg and Amylin 1.0 μg s.c.
[10] = CCK-8 1 μg and Amylin 10.0 μg s.c.
[11] = s.c. amylin with CCK-8 1 μg, dose-dependent
[12] = ±0.09 log units, first ED50 sentence of b123
[13] = ±0.09 log units, second ED50 sentence of b123

Molecule: cholecystokinin octapeptide [CCK-8, reference compound]
- Amylase (rat pancreas; CCK-8 1 μg s.c. alone): 459.76 ± 52.49 U/45 min
- Lipase (rat pancreas; CCK-8 1 μg s.c. alone): 723.56 ± 100.56 U/45 min
- Pancreatic flow (rat pancreas; CCK-8 1 μg s.c. alone): 99 ± 13 μl/45 min

Molecule: des-^1Lys-h-amylin (CNTATCATQRLANFLVHSSNNFGAILSSTNVGSNTY; ends and bridges not checked; cysteine pairing not given here; UniProt P10997 35-70, looked up, fragment)
- amylin activity in vivo [1]: show amylin activity in vivo

Molecule: CC[C@H](C)[C@H](NC(=O)[C@H](C)NC(=O)CNC(=O)[C@H](Cc1ccccc1)NC(=O)[C@H](CC(N)=O)NC(=O)[C@H](CC(N)=O)NC(=O)[C@H](CO)NC(=O)[C@H](CO)NC(=O)[C@H](Cc1c[nH]cn1)NC(=O)[C@@H](NC(=O)[C@H](CC(C)C)NC(=O)[C@H](Cc1ccccc1)NC(=O)[C@H](CC(N)=O)NC(=O)[C@H](C)NC(=O)[C@H](CC(C)C)NC(=O)[C@H](CCCNC(=N)N)NC(=O)[C@H](CCC(N)=O)NC(=O)[C@@H](NC(=O)[C@H](C)NC(=O)[C@@H]1CSSC[C@H](NC(=O)[C@@H](N)CCCCN)C(=O)N[C@@H](CC(N)=O)C(=O)N[C@@H]([C@@H](C)O)C(=O)N[C@@H](C)C(=O)N[C@@H]([C@@H](C)O)C(=O)N1)[C@@H](C)O)C(C)C)C(=O)N[C@@H](CC(C)C)C(=O)N[C@@H](CO)C(=O)N[C@@H](CO)C(=O)N[C@H](C(=O)N[C@@H](CC(N)=O)C(=O)N[C@H](C(=O)NCC(=O)N[C@@H](CO)C(=O)N[C@@H](CC(N)=O)C(=O)N[C@H](C(=O)N[C@@H](Cc1ccc(O)cc1)C(N)=O)[C@@H](C)O)C(C)C)[C@@H](C)O [human amylin]
- pEC50 (soleus muscle): 8.00 to 9.00

Molecule: des-^1Lys^18Arg^25,28Pro-h-amylin
- amylin activity in vivo [1]: show amylin activity in vivo

Molecule: ^28Pro-h-amylin (KCNTATCATQRLANFLVHSSNNFGAILPSTNVGSNTY)
- amylin activity in vivo [1]: show amylin activity in vivo

- Amylase, % from CCK-8 stimulated (rat pancreas; [7]): 25.83%
- Lipase, % from CCK-8 stimulated (rat pancreas; [7]): 34.65%
- Pancreatic flow, % from CCK-8 stimulated (rat pancreas; [7]): 21.21%
- Amylase, % from CCK-8 stimulated (rat pancreas; [8]): 40.90%
- Lipase, % from CCK-8 stimulated (rat pancreas; [8]): 57.25%
- Pancreatic flow, % from CCK-8 stimulated (rat pancreas; [8]): 32.32%
- Amylase, % from CCK-8 stimulated (rat pancreas; [9]): 57.32%
- Lipase, % from CCK-8 stimulated (rat pancreas; [9]): 67.87%
- Pancreatic flow, % from CCK-8 stimulated (rat pancreas; [9]): 41.41%
- Amylase, % from CCK-8 stimulated (rat pancreas; [10]): 23.07%
- Lipase, % from CCK-8 stimulated (rat pancreas; [10]): 48.77%
- Pancreatic flow, % from CCK-8 stimulated (rat pancreas; [10]): 9.09%
- inhibition of cholecystokinin stimulated pancreatic amylase activity (maximum) (rat pancreas; [11]): up to 67.9%
- inhibition of secretion of cholecystokinin stimulated pancreatic lipase (maximum) (rat pancreas; [11]): up to 57.3%
Molecule: Amylin: rat amylin (AR905-80) in Example II; amylin (AC128, Amylin Pharmaceuticals, Inc.) in Example I; 37 amino acid peptide hormone (KCNTATCATQRLANFLVHSSNNFGAILSSTNVGSNTY)
- reduction of elevated plasma amylase produced by caerulein [2]: effectively reduce the elevated levels of plasma amylase
- effect on basal pancreatic enzyme secretion [3]: no effect
- Amylase (rat pancreas; [5]): 80.21 ± 35.71 U/45 min
- Lipase (rat pancreas; [5]): 149.51 ± 86.79 U/45 min
- Pancreatic flow (rat pancreas; [5]): 30 ± 6 μl/45 min
- Amylase (rat pancreas; [6]): 61.95 ± 24.51 U/45 min
- Lipase (rat pancreas; [6]): 64.67 ± 21.59 U/45 min
- Pancreatic flow (rat pancreas; [6]): 13 ± 4 μl/45 min
- Amylase (rat pancreas; [7]): 340.98 ± 40.91 U/45 min
- Lipase (rat pancreas; [7]): 472.82 ± 58.67 U/45 min
- Pancreatic flow (rat pancreas; [7]): 78 ± 8 μl/45 min
- Amylase (rat pancreas; [8]): 271.73 ± 48.38 U/45 min
- Lipase (rat pancreas; [8]): 309.30 ± 74.31 U/45 min
- Pancreatic flow (rat pancreas; [8]): 67 ± 6 μl/45 min
- Amylase (rat pancreas; [9]): 193.93 ± 34.40 U/45 min
- Lipase (rat pancreas; [9]): 232.41 ± 58.01 U/45 min
- Pancreatic flow (rat pancreas; [9]): 58 ± 12 μl/45 min
- Amylase (rat pancreas; [10]): 353.68 ± 78.85 U/45 min
- Lipase (rat pancreas; [10]): 370.65 ± 85.67 U/45 min
- Pancreatic flow (rat pancreas; [10]): 90 ± 13 μl/45 min
- ED50 for suppression of pancreatic amylase activity (rat pancreas; [12]): 129 pmol/kg
- ED50 for suppression of pancreatic lipase activity (rat pancreas; [12]): 129 pmol/kg
- ED50 for suppression of CCK-8 stimulated pancreatic amylase activity (rat pancreas; [13]): 123 pmol/kg
- ED50 for suppression of CCK-8 stimulated pancreatic lipase activity (rat pancreas; [13]): 123 pmol/kg
- tolerability [4]: well tolerated
